# Assay results published in ChEMBL document CHEMBL5726158, “5H-pyrido[3,2-B]indole compounds as anticancer agents” (2019).
# Biological target: Bromodomain-containing protein 4 (Homo sapiens, UniProt O60885)
# Assay: Time Resolved Fluorescence Resonance Energy Transfer (TR-FRET) Assay: The binding of compounds to bromodomain BRD4 (44-168), BRD4 (333-460), and BRD4 (1-477 or 44-460) was assessed using a time resolved fluorescent resonance energy transfer binding assay (1), that measures the binding of a fluorescently labeled probe molecule to the bromodomain protein. The bromodomain protein, fluorescent probe molecule (either a biotinylated histone peptide or a fluorescently labeled small molecule), and dose-responsed test compound are incubated together to reach thermodynamic equilibrium. In the absence of a test compound, the bromodomain and small molecule are bound, resulting in a high fluorescent signal. In the presence of a sufficient concentration of inhibitor, this interaction is disrupted resulting in a lost of fluorescent resonance energy transfer.All assay components were dissolved in buffer composition 20 mM Hepes pH 7.5, 150 mM NaCl, 5 mM DTT, 0.005% Tween 20, and 100 ug/ml BSA for BRD4 (1-477 and 44-460). The final concentrations of the bromodomain proteins are 1.6 nM BRD4(44-168), 1 nM BRD4(333-460), and 1 nM BRD4(1-477 or 44-460), and the fluorescent probe molecule is 100 nM, 50 nM, and 7.5 nM respectively. All proteins were biotinylated. […]
smiles,measurement,value
Cc1nnn(C)c1-c1cnc2c3cc(C4CCN(C(=O)OC(C)(C)C)CC4)ccc3n([C@H](c3ccccc3)C3CCOCC3)c2c1,IC50,< 5 nM
